Measured values taken from article PMC6037002, “Drug targeting to decrease cardiotoxicity – determination of the cytotoxic effect of GnRH-based conjugates containing doxorubicin, daunorubicin and methotrexate on human cardiomyocytes and endothelial cells” (Beilstein Journal of Organic Chemistry, 2018).
Like-named read-outs stand apart in the source and are kept apart here.

Legend:
[1] = test system: human umbilical vein endothelial cells (HUVEC); assay: Impedimetric measurement (xCELLigence SP), delta slope, HUVEC; conditions: for delta slope (DS), short-term / delta slope (DS), long-term: HUVEC, three parallels; for delta slope (DS), short-term: 0–2 h; for delta slope (DS), long-term: 0–72 h; for cytotoxic effect on HUVEC, result in words: long-term (0–72 h), 10^−8–10^−6 mol/L, impedimetry, one-way ANOVA
Text: (§1) The main objective of the study reported here was to evaluate the in vitro cardiotoxic effects (as undesired side effects) of […] GnRH-III-based conjugates containing doxorubicin, daunorubicin and methotrexate on two essential target cells of cardiovascular diseases: vascular endothelial cells and cardiomyocytes. The rate of cytotoxicity (antitumor effect) vs cardiotoxicity (toxic effects on cardiomyocytes and vascular endothelium) is an important factor for efficient drug development for targeted tumor therapy with minimized side effects. The technique used in this work – impedimetry – is a dedicated one for real-time monitoring of cells to distinguish short-term (0–2 hours) and long-term (0–72 hours) effects elicited by the drug or carrier–drug conjugates. The basic theory of impedimetry is that proliferation/viability of cells is well detectable by monitoring of the electric impedance (Z) in an AC environment, due to the electric insulator character of intact surface membranes composed of the phospholipid bilayer. […] While cell physiological responses of short-term exposures result in characteristic changes of cell morphology (e.g., spreading), long-term effects characteristically influence in particular the proliferation of cells, and therefore the cytotoxic effects. The presented dimensionless values of delta slope (DS) measure the difference between the slope of the curve corresponding to the treatment and that of the control curve in impedimetric recordings, the negative signs refer to the relative values to the identical control.
(§2) Experimental part – Cellular samples
(§3) In the present study, GnRH conjugates containing anti-tumour drugs (e.g., daunorubicin, doxorubicin) were investigated in order to evaluate whether the conjugates exert a decrease cardiotoxic effect compared to that of the free drugs. The cardiac myocytes and the vascular endothelium cells are the most frequently detected target cells of antitumor compounds and they are employed in our study. Human umbilical vein endothelial cells (HUVEC; Promocell, Biomedica, Wien, Austria) were cultured in Endothelial Cell Growth Medium with Endothelial Cell Growth Supplement Mix (Promocell, Biomedica, Wien, Austria) and 100 µg/mL penicillin/streptomycin. Primary human cardiac myocytes (HCM; Promocell, Biomedica, Wien, Austria) were cultured in Myocyte Growth Medium (Promocell, Biomedica, Wien, Austria).
(§4) Impedimetric measurements
(§5) The xCELLigence SP system was used for impedimetric measurements. The bottom of the wells of a 96-well E-plate is installed with a golden electrode array that constitutes the adhesion surface. Adhering cells – acting as insulators – change the electric impedance measured on the electrodes. The measured impedance change is in direct correlation with the number of adhering cells and the extent of adhesion. The results of impedance change are given in the form of Cell Index (CI) calculated by the xCELLigence system according to the […]
(§6) where Zt is the measured impedance in a time point, Zb is the background impedance and F is an inbuilt factor (F = 15 at 10 kHz) depending on the frequency of the alternating current. The measurements took place in an incubator holding a 37 °C temperature and 5% carbon-dioxide […]
(§7) The experiments started with a measurement of baseline impedance for 1 hour. After that, the cells (10^4 cells/well) were added to the wells and allowed to adhere to the electrodes. When the adhering cells reached a balanced state in the wells, signified by the impedance curves […]
(§8) free drugs at 10−12 – 10−6 M and the conjugates at 10−8 – 10−6 M final concentrations were […]
(§9) added to the wells. The changes in impedance were measured for at least 72 hours. For each measurement three parallels were measured.
(§10) The evaluation of responses followed the previously described strategy: acute effects of compounds were evaluated as a characteristic morphology of the curves in the 0–2 hours

[2] = test system: human acute monocytic leukemia (MonoMac6) cells; conditions: cited from earlier work
Text: (§11) Table 1 Comparative study of cytotoxic effects and cardiotoxicity elicited by GnRH-based antitumor compounds (1–15) and reference substances (AN-152, Dox, Dau, Mtx). IC50 values show antitumor cytotoxic characteristics of the conjugates in human breast cancer (MCF-7), human colorectal adenocarcinoma (HT-29) and human acute monocytic leukemia (MM6) derived cell lines as representative tumor cells.

[3] = test system: MCF-7 human breast adenocarcinoma cells; conditions: MTT assay; cited from earlier work
Text: as §11

[4] = test system: HT-29 human colon adenocarcinoma cells; conditions: MTT assay; cited from earlier work
Text: as §11

[5] = test system: primary human cardiac myocytes (HCM); conditions: for delta slope (DS), short-term / delta slope (DS), long-term: HCM, three parallels; for delta slope (DS), short-term: 0–2 h; for delta slope (DS), long-term: 0–72 h
Text: as §1, §2, §3, §4, §5, §6, §7, §8, §9, §10

[6] = grade +++/++/+/0, key not given, summary of impedimetric cytotoxicity

Molecule	Cardiotoxicity, HUVEC [1]	delta slope (DS), short-term ([1]; Table S1a, 10^-6 mol/L)	delta slope (DS), short-term ([1]; Table S1a, 10^-7 mol/L)	delta slope (DS), short-term ([1]; Table S1a, 10^-8 mol/L)	delta slope (DS), short-term ([1]; Table S1a, 10^-9 mol/L)	delta slope (DS), short-term ([1]; Table S1a, 10^-10 mol/L)	IC50 [2]	IC50 [3]	delta slope (DS), short-term ([1]; Table S4a, 10^-6 mol/L)	delta slope (DS), short-term ([1]; Table S4a, 10^-7 mol/L)	delta slope (DS), short-term ([1]; Table S4a, 10^-8 mol/L)	delta slope (DS), long-term ([1]; Table S4a, 10^-6 mol/L)	delta slope (DS), long-term ([1]; Table S4a, 10^-7 mol/L)	delta slope (DS), long-term ([1]; Table S4a, 10^-8 mol/L)	delta slope (DS), short-term ([5]; Table S4b, 10^-6 mol/L)	delta slope (DS), short-term ([5]; Table S4b, 10^-7 mol/L)	delta slope (DS), short-term ([5]; Table S4b, 10^-8 mol/L)	delta slope (DS), long-term ([5]; Table S4b, 10^-6 mol/L)	delta slope (DS), long-term ([5]; Table S4b, 10^-7 mol/L)	delta slope (DS), long-term ([5]; Table S4b, 10^-8 mol/L)	other results
COc1cccc2c1C(=O)c1c(O)c3c(c(O)c1C2=O)C[C@@](O)(C(=O)CO)C[C@@H]3O[C@H]1C[C@H](N)[C@H](O)[C@H](C)O1 [doxorubicin]	+++	0.063	0.037	-0.008	0.003	-0.004	7 ± 0.1 nM	100 nM	–	–	–	–	–	–	–	–	–	–	–	–	delta slope (DS), short-term ([1]; Table S1a, 10^-11 mol/L): 0.021; delta slope (DS), short-term ([1]; Table S1a, 10^-12 mol/L): 0.008; delta slope (DS), short-term ([1]; Table S2a, 10^-6 mol/L): 0.012; delta slope (DS), short-term ([1]; Table S2a, 10^-7 mol/L): 0.032; delta slope (DS), short-term ([1]; Table S2a, 10^-8 mol/L): 0.002; IC50 [4]: 100 nM; Cardiotoxicity, HCM [5]: +++; delta slope (DS), short-term ([5]; Table S1b, 10^-6 mol/L): 0.019; delta slope (DS), short-term ([5]; Table S1b, 10^-7 mol/L): 0.003; delta slope (DS), short-term ([5]; Table S1b, 10^-8 mol/L): 0.001; delta slope (DS), short-term ([5]; Table S1b, 10^-9 mol/L): -0.001; delta slope (DS), short-term ([5]; Table S1b, 10^-10 mol/L): 0.002; delta slope (DS), short-term ([5]; Table S1b, 10^-11 mol/L): 0.002; delta slope (DS), short-term ([5]; Table S1b, 10^-12 mol/L): 0.001; delta slope (DS), short-term ([5]; Table S2b, 10^-6 mol/L): 0.057; delta slope (DS), short-term ([5]; Table S2b, 10^-7 mol/L): -0.001; delta slope (DS), short-term ([5]; Table S2b, 10^-8 mol/L): 0.001
CN(Cc1cnc2nc(N)nc(N)c2n1)c1ccc(C(=O)N[C@@H](CCC(=O)O)C(=O)O)cc1 [methotrexate]	+	0.001	0.002	0.013	0.019	0.012	8 ± 0.2 nM	–	–	–	–	–	–	–	–	–	–	–	–	–	delta slope (DS), short-term ([1]; Table S1a, 10^-11 mol/L): 0.013; delta slope (DS), short-term ([1]; Table S1a, 10^-12 mol/L): 0.015; delta slope (DS), short-term ([1]; Table S5a, 10^-6 mol/L): 0.005; delta slope (DS), short-term ([1]; Table S5a, 10^-7 mol/L): 0.003; delta slope (DS), short-term ([1]; Table S5a, 10^-8 mol/L): -0.003; IC50 [4]: 1400 ± 600 nM; Cardiotoxicity, HCM [5]: 0; cytotoxic effect on HCM, result in words [5]: no significant effect was measured; delta slope (DS), short-term ([5]; Table S1b, 10^-6 mol/L): 0.005; delta slope (DS), short-term ([5]; Table S1b, 10^-7 mol/L): 0.001; delta slope (DS), short-term ([5]; Table S1b, 10^-8 mol/L): 0.001; delta slope (DS), short-term ([5]; Table S1b, 10^-9 mol/L): -0.001; delta slope (DS), short-term ([5]; Table S1b, 10^-10 mol/L): 0.001; delta slope (DS), short-term ([5]; Table S1b, 10^-11 mol/L): 0.001; delta slope (DS), short-term ([5]; Table S1b, 10^-12 mol/L): 0.002; delta slope (DS), short-term ([5]; Table S5b, 10^-6 mol/L): 0.001
[GnRH-III(Dau=Aoa-C)]2 [conjugate 9]	–	–	–	–	–	–	1690 ± 410 nM	4100 ± 800 nM	0.014	0.008	0.001	0.001	-0.001	-0.002	0.003	0.002	-0.001	-0.001	-0.001	-0.002	Cardiotoxicity, HUVEC [1, 6]: 0; cytotoxic effect on HUVEC, result in words [1]: completely lost the cytotoxic effect; Cardiotoxicity, HCM [5, 6]: 0; cytotoxic effect on HCM, result in words ([5]; long-term (0–72 h), 10^−8–10^−6 mol/L (free drugs 10^−12–10^−6 mol/L), impedimetry, one-way ANOVA): completely lost their cytotoxic effect
{GnRH-III(Dau=Aoa-YRRL-C)}2 [conjugate 11]	–	–	–	–	–	–	420 ± 50 nM	–	0.014	0.002	0.022	−0.017	−0.005	0.001	-0.004	-0.001	-0.001	−0.004	-0.002	-0.001	–
{[^4N-MeSer]-GnRH-III(Dau=Aoa-C)}2 (disulfide) [conjugate 10]	–	–	–	–	–	–	783 ± 90 nM	6200 ± 1500 nM	0.017	0.011	0.008	0.004	0.002	0.001	0.001	-0.001	-0.002	−0.005	−0.003	-0.001	Cardiotoxicity, HUVEC [1, 6]: 0; cytotoxic effect on HUVEC, result in words [1]: completely lost the cytotoxic effect
